This is an account of results in patent US5545640A, “Protease inhibiting succinic acid derivatives” (Bio-Mega/Boehringer Ingeleheim Research Inc., priority 1995, dated 1996).

The structures appear in SMILES notation. Where two headings read alike, the source gives them in different places.

Assay [1] concerns HIV (H9/HTLV-IIIB stock) in C8166 cells. The assay is described as follows: Cell culture assay: inhibition of syncytia formation in HIV-infected C8166 cells (antiviral, anti-HIV effect). Format: cell-based, HIV (HTLV-IIIB); human T4 cell line. The conditions noted are these: read-out: EC50 (concentration causing 50% inhibition of syncytia formation). From the text: Typical of such procedures are those described by S. Harada and N. Yamamoto, Jpn. J. Cancer Res. (Gann), 76, 432 (1985), and S. Harada et al., Science, 229, 563 (1985). An assay based on the latter procedures is described in the examples hereinafter.
In addition, Tables 1 to 8 list the results for exemplified compounds of formula 1 when assayed for antiviral (anti-HIV) effects according to the following protocol which is based on a cell culture assay previously described by Harada et al., supra. Transformed cells are used because of the rapidity with which HIV will replicate in the cells.
1. The test compound is dissolved in dimethylsulfoxide to a concentration of 5 mg/mL. The resultant solution .can be stored at 4° until use.
2. The resultant solution is diluted in RPMI 1640 (Gibco Laboratories, St. Lawrence, Mass., USA) to four times (4×) the final concentration which is to be tested. Once diluted in RPMI 1640, the solution is used in the cell culture assay within 4 h.
3. The latter solution (50 μL) is added to triplicate wells of a 96 well flat bottomed microtiter plate. RPMI (50 μL) also is added to control wells.
4. C8166 cells (5×10^4) in 50 μL of HEPES-buffered RPMI 1640 (pH=7.2), 10% heat inactivated fetal calf serum (FCS), […] gentamicin (complete media) are added to all wells.
5. Fifty times TCID50 of H9/HTLV-IIIB stock (stored in liquid nitrogen as cell culture supernatant in 50% FCS) in 100 μL of complete media is added to all wells. The infectious titer of the virus stocks is as previously determined by end point dilution on C8166 cells. The titer of stocks are stable for 6-12 months when stored at -193°.
6. Microtiter plates are then placed on level shelves of a 37°, 5% CO2 humidified incubator for 72 h.
7. Plates are then removed and centers of syncytia are counted in each well by low power phase contrast light microscopy. […] Control wells should have between 25 and 75 centers of syncytia per well.
8. Percent inhibition of syncytia formation is calculated by the formula: [formula]
The concentration of the test compound which causes a 50% inhibition of syncytia formation, i.e. the EC50, is determined by using the technique of serial dilution of the working solution at step 3 and graphically plotting the observed percent inhibition of syncytia formation against the various concentrations of the test compound.
In the following tables, assay results are listed for the exemplified compounds from the aforementioned recombinant HIV protease HPLC assay under the heading IC50 (nM) and from the cell culture assay under the heading EC50 (nM). Note that for some of the compounds listed in tables, the EC50 's have not been determined (ND).

The target of the next assay is T1, HIV protease (Human immunodeficiency virus type 1 group M subtype B, UniProt P04585).
T1 construct: an HIV-encoded enzyme known as HIV protease
The assay is described as follows: biochemical. The conditions noted are these: read-out: IC50 (concentration causing 50% inhibition of HIV protease). From the text:
The procedure is based on the capacity of the test compound to inhibit enzymatic cleavage by HIV protease of a decapeptide (the substrate) having an amino acid sequence which includes a known HIV protease cleavage site of a HIV polyprotein; see H. G. Krausslich et al., Proc. Natl. Acad. Sci. USA, 86, 807 (1989).
Anderson, S. Rakhit and C. Yoakim in the European patent application 443 560, published Aug. 28, 1991.

Where [2] appears, read: Human immunodeficiency virus 1, C8166 cells, H9/HTLV-IIIB, 50 times TCID50, 72 h, 37°.
[3] abbreviates: recombinant HIV protease, decapeptide substrate, HPLC assay.

Take `CCC(CC)NC(=O)C[C@@H](C(=O)NC[C@@H](O)[C@H](Cc1ccccc1)NC(=O)COc1c(C)cccc1C)C(C)(C)C` [Entry 71, N^1-(1-Ethylpropyl)-N^4 -{3(S)-{{(2,6-dimethylphenoxy)acetyl}amino}-2(R)-hydroxy-4-phenylbutyl}-3(R)-tert-butylbutanediamide]: the EC50 in assay [1] (setting [2]) is 645 nM. Also, at HIV protease (setting [3]), the IC50 came out at 3.5 nM.

For `CCC(CC)NC(=O)C[C@@H](C(=O)NC[C@@H](O)[C@H](Cc1ccccc1)NC(=O)c1ccc(Cl)cc1Cl)C(C)(C)C` [Entry 66], the EC50 in assay [1] (setting [2]) came to 680 nM. Moreover, at HIV protease (setting [3]), the IC50 was 4.7 nM.

In the case of `CCC(CC)NC(=O)C[C@@H](C(=O)NC[C@@H](O)[C@H](Cc1ccccc1)NC(=O)c1ccc(Cl)cc1)C(C)(C)C` [Entry 65], in assay [1] (setting [2]), the EC50 came to 845 nM. Moreover, the IC50 on HIV protease (setting [3]) was 8.7 nM.

For the molecule `CCC(CC)NC(=O)C[C@@H](C(=O)NC[C@@H](O)[C@H](Cc1ccccc1)NC(=O)[C@@H](NC(=O)OCc1ccccc1)C(C)(C)C)C(C)(C)C` [Entry 34], in assay [1] (setting [2]), the EC50 is 65 nM. For the same molecule, at HIV protease (setting [3]), the IC50 is 3 nM.

As to `Cc1ccc(C)c(C(=O)N[C@@H](Cc2ccccc2)[C@H](O)CNC(=O)[C@H](CC(=O)Nc2c(C)cccc2C)C(C)(C)C)c1` [Entry 74], the EC50 in assay [1] (setting [2]) came out at 370 nM. The IC50 on HIV protease (setting [3]) was 2 nM.

For the molecule `CC(C)[C@H](NC(=O)OCc1ccccc1)C(=O)N[C@@H](Cc1ccccc1)[C@H](O)CNC(=O)C(CC(=O)NC(C)(C)C)C(C)(C)C` (some centres unmarked) [Entry 51], the EC50 in assay [1] (setting [2]) is 200 nM. In addition, the IC50 on HIV protease was found to be 7 nM.

Turning to `CCCC(CCC)NC(=O)C[C@@H](C(=O)NC[C@@H](O)[C@H](Cc1ccccc1)NC(=O)[C@H](CC(N)=O)NC(=O)c1ccc2ccccc2n1)C(C)(C)C` [Entry 44], the EC50 in assay [1] (setting [2]) was found to be 57 nM. On HIV protease (setting [3]), the IC50 was 4 nM.

Regarding `CCC(CC)NC(=O)C[C@@H](C(=O)NC[C@@H](O)[C@H](Cc1ccccc1)NC(=O)[C@@H](NC(=O)OCc1ccccc1)C(C)C)C(C)(C)C` [Entry 32], the EC50 in assay [1] (setting [2]) came to 63 nM. Besides, at HIV protease (setting [3]), the IC50 worked out at 3 nM.

On to `CCC(CC)NC(=O)CC(C(=O)NC[C@@H](O)[C@H](Cc1ccccc1)NC(=O)[C@H](CC(N)=O)NC(=O)OCc1ccccc1)C(C)(C)C` (some centres unmarked) [Entry 49], for which the EC50 in assay [1] (Human immunodeficiency virus 1, IIIB, C8166, 72 h) turned out to be 1300 nM. The IC50 on HIV protease (setting [3]) was found to be 13 nM.

Regarding `CCC(CC)NC(=O)C[C@@H](C(=O)NC[C@@H](O)[C@H](Cc1ccccc1)NC(=O)[C@H](CC(N)=O)NC(=O)c1cccc2cccnc12)C(C)(C)C` [Entry 10], the EC50 in assay [1] (setting [2]) worked out at 270 nM. Also, on HIV protease (setting [3]), the IC50 was 15 nM.

Turning to `CCC(CC)NC(=O)C[C@@H](C(=O)NC[C@@H](O)[C@H](Cc1ccccc1)NC(=O)[C@H](C(C)C)N(C)C(=O)OCc1ccccc1)C(C)(C)C` [Entry 13], in assay [1] (setting [2]), the EC50 came to 1900 nM. The IC50 at HIV protease (setting [3]) was found to be 12 nM.

In the case of `CCC(CC)NC(=O)C[C@@H](C(=O)NC[C@@H](O)[C@H](Cc1ccccc1)NC(=O)[C@@H](NC(=O)c1ccc2ccccc2n1)C(C)(C)C)C(C)(C)C` [Entry 27], the EC50 in assay [1] (setting [2]) worked out at 83 nM. Besides, the IC50 at HIV protease (setting [3]) turned out to be 4 nM.

On to `CCC(CC)NC(=O)C[C@@H](C(=O)NC[C@@H](O)[C@H](Cc1ccccc1)NC(=O)[C@@H](NC(C)=O)C(C)C)C(C)(C)C` [Entry 28], for which the EC50 in assay [1] (setting [2]) is 530 nM. For the same molecule, the IC50 on HIV protease (setting [3]) was found to be 4 nM.

As to `CCC(CC)NC(=O)C[C@@H](C(=O)NC[C@@H](O)[C@H](Cc1ccccc1)NC(=O)c1cc2ccccc2n1C)C(C)(C)C` [Entry 64], in assay [1] (setting [2]), the EC50 came out at 640 nM. Also, on HIV protease (setting [3]), the IC50 is 8.9 nM.

As for `CCc1cccc(CC)c1NC(=O)C[C@@H](C(=O)NC[C@@H](O)[C@H](Cc1ccccc1)NC(=O)[C@@H](NC(=O)c1ccc2ccccc2n1)[C@@H](C)O)C(C)(C)C` [Entry 43], in assay [1] (setting [2]), the EC50 came out at 30 nM. The IC50 on HIV protease (setting [3]) was 5 nM.

On to `CCC(CC)NC(=O)C[C@@H](C(=O)NC[C@@H](O)[C@H](Cc1ccccc1)NC(=O)c1c(Cl)ccc(Cl)c1Cl)C(C)(C)C` [Entry 67], for which the EC50 in assay [1] (setting [2]) stood at 360 nM. Also, the IC50 on HIV protease (setting [3]) amounted to 6 nM.

With `CCC(CC)NC(=O)C[C@@H](C(=O)NC[C@@H](O)[C@H](Cc1ccccc1)NC(=O)[C@H](CC(N)=O)NC(=O)c1cnc2ccccc2n1)C(C)(C)C` [Entry 36], the EC50 in assay [1] (setting [2]) is 260 nM. For the same molecule, at HIV protease (setting [3]), the IC50 worked out at 3 nM.

Turning to `CCC(CC)NC(=O)C[C@@H](C(=O)NC[C@@H](O)[C@H](Cc1ccc(O)cc1)NC(=O)COc1c(C)cccc1C)C(C)(C)C` [Entry 63, N^1-(1-ethylpropyl)-N^4 -{3(S)-{{(2,6-dimethylphenoxy)-acetyl}amino}-2(R)-hydroxy-4-(4-hydroxyphenyl)butyl}-3(R)-tert-butylbutanediamide], in assay [1] (setting [2]), the EC50 stood at 110 nM. Also, the IC50 on HIV protease (setting [3]) was 3.1 nM.

As to `CCC(CC)OC(=O)C[C@@H](C(=O)NC[C@@H](O)[C@H](Cc1ccccc1)NC(=O)[C@H](CC(N)=O)NC(=O)c1ccc2ccccc2n1)C(C)(C)C` [Entry 59, 3(R)-tert-butyl-4-{2(R)-hydroxy-4-phenyl-3(S)-{[N-(2-quinolylcarbonyl)asparaginyl]-amino}butylamino}-4-oxobutyric acid 1-ethylpropyl ester], the EC50 in assay [1] (setting [2]) is 570 nM. Besides, at HIV protease (setting [3]), the IC50 is 7 nM.

On to `CCC(CC)NC(=O)C[C@@H](C(=O)NC[C@@H](O)[C@H](Cc1ccccc1)NC(=O)[C@@H](NC(=O)COc1ccccc1)[C@@H](C)O)C(C)(C)C` [Entry 41], for which, in assay [1] (setting [2]), the EC50 was 170 nM. The IC50 at HIV protease (setting [3]) came out at 3 nM.

Regarding `CC(C)C(NC(=O)C[C@@H](C(=O)NC[C@@H](O)[C@H](Cc1ccccc1)NC(=O)[C@H](CC(N)=O)NC(=O)c1ccc2ccccc2n1)C(C)(C)C)C(C)C` [Entry 45], in assay [1] (setting [2]), the EC50 turned out to be 150 nM. For the same molecule, at HIV protease (setting [3]), the IC50 is 4 nM.

For the molecule `Cc1cccc(C)c1NC(=O)C[C@@H](C(=O)NC[C@@H](O)[C@H](Cc1ccccc1)NC(=O)OCc1ccccc1)C(C)(C)C` [Entry 72], the EC50 in assay [1] (setting [2]) worked out at 360 nM. Further, the IC50 at HIV protease (setting [3]) was found to be 3 nM.

For the molecule `CCC(CC)NC(=O)C[C@@H](C(=O)NC[C@@H](O)[C@H](Cc1ccccc1)NC(=O)[C@@H](NC(=O)c1cnc2ccccc2n1)[C@@H](C)O)C(C)(C)C` [Entry 26], the EC50 in assay [1] (setting [2]) came to 65 nM. For the same molecule, the IC50 on HIV protease is 4 nM.

Take `CCC(CC)NC(=O)CC(C(=O)NC[C@@H](O)[C@H](Cc1ccccc1)NC(=O)[C@@H](NC(=O)OCc1ccccc1)C(C)(C)C)C(C)(C)C` (some centres unmarked) [Entry 53]: in assay [1] (setting [2]), the EC50 worked out at 90 nM. Further, the IC50 at HIV protease (setting [3]) is 6 nM.

As to `CCC(CC)NC(=O)C[C@@H](C(=O)NC[C@@H](O)[C@H](Cc1ccccc1)NC(=O)[C@H](CC(N)=O)NC(=O)OCc1ccccc1)C(C)(C)C` [Entry 20], the EC50 in assay [1] (setting [2]) turned out to be 480 nM. For the same molecule, at HIV protease (setting [3]), the IC50 stood at 5 nM.
